Laboratory results reported in patent US7795290B2 (Genentech, Inc., priority 2004, dated 2010).

Biological target: T1, AKT1 (Homo sapiens, UniProt P31749)
T1 construct: purchased Upstate 14-276
Test: HTS ATP-utilizing enzyme assay, off-chip mobility-shift (Caliper HTS 250)
Assay type: biochemical
Conditions: kinase named = inhibitory activity/selectivity; test compound 10 μM; active = greater than three-sigma from mean
Procedure, shortened: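 AKT1 activity was measured by off-chip mobility shift (Caliper HTS 250) as the ratio of peptide substrate to phosphorylated product. Test compound was at 10 μM, with 2.5 h incubation at 20–22° C. EDTA wells served as 100% control and DMSO wells as 0%. Hits were called at three-sigma limits.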

T1 sequence (P31749 whole entry): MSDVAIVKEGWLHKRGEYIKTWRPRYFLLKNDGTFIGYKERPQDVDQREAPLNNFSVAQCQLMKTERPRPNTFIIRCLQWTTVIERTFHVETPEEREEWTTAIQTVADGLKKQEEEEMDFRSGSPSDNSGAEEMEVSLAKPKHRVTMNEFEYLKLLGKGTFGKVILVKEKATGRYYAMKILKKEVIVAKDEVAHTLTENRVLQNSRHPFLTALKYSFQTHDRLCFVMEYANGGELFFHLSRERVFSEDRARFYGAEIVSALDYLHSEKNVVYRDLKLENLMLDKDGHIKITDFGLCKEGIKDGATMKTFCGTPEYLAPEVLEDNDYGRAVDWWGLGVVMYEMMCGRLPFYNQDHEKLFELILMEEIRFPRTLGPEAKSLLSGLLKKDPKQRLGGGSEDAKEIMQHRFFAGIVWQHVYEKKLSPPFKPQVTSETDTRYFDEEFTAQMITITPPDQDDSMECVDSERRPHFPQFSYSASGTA

Activity, AKT1:
O=C(CCN(C(=O)c1cccs1)c1nc(-c2cc3ccccc3o2)cs1)N1CCCC(CO)C1 (stereo not drawn) [N-(4-(benzofuran-2-yl)thiazol-2-yl)-N-(3-(3-(hydroxymethyl)piperidin-1-yl)-3-oxopropyl)thiophene-2-carboxamide]
O=C(c1ccco1)N(CCCCN1CCOCC1)c1nc(-c2cc(-c3ccccc3)no2)cs1 [N-(4-morpholinobutyl)-N-(4-(3-phenylisoxazol-5-yl)thiazol-2-yl)furan-2-carboxamide]
COc1ccc(-c2csc(N(CCCN3CCCCC3)C(=O)c3cccs3)n2)cc1 [N-(4-(4-methoxyphenyl)thiazol-2-yl)-N-(3-(piperidin-1-yl)propyl)thiophene-2-carboxamide]
O=C(c1cccs1)N(CCCN1CCOCC1)c1nc(-c2ccc(-c3ccccc3)cc2)cs1 [N-(4-(biphenyl-4-yl)thiazol-2-yl)-N-(3-morpholinopropyl)thiophene-2-carboxamide]
COCCN1CCN(CCCN(C(=O)c2cccs2)c2nc(-c3cc4ccccc4o3)cs2)CC1 [N-(4-(benzofuran-2-yl)thiazol-2-yl)-N-(3-(4-(2-methoxyethyl)piperazin-1-yl)propyl)thiophene-2-carboxamide]
O=C(c1cccs1)N(CCCN1CCOCC1)c1nc(-c2csc3ccccc23)cs1 [N-(4-(benzo[b]thiophen-3-yl)thiazol-2-yl)-N-(3-morpholinopropyl)thiophene-2-carboxamide]
O=C(c1cccs1)N(CCCN1CCOCC1)c1nc(-c2ccccc2F)cs1 [N-(4-(2-fluorophenyl)thiazol-2-yl)-N-(3-morpholinopropyl)thiophene-2-carboxamide]
CCCCCc1ccc(-c2csc(N(CCCN3CCOCC3)C(=O)c3cccs3)n2)cc1 [N-(3-morpholinopropyl)-N-(4-(4-pentylphenyl)thiazol-2-yl)thiophene-2-carboxamide]
O=C(C1CCCO1)N1CCN(CCCN(C(=O)c2cccs2)c2nc(-c3cc4ccccc4o3)cs2)CC1 (stereo not drawn) [N-(4-(benzofuran-2-yl)thiazol-2-yl)-N-(3-(4-(tetrahydrofuran-2-carbonyl)piperazin-1-yl)propyl)thiophene-2-carboxamide]
O=C(c1cccs1)N(CCCN1CCC(O)CC1)c1nc(-c2cc3ccccc3o2)cs1 [N-(4-(benzofuran-2-yl)thiazol-2-yl)-N-(3-(4-hydroxypiperidin-1-yl)propyl)thiophene-2-carboxamide]
COc1cccc2cc(-c3csc(N(CCCN4CCOCC4)C(=O)c4cccs4)n3)oc12 [N-(4-(7-methoxybenzofuran-2-yl)thiazol-2-yl)-N-(3-morpholinopropyl)thiophene-2-carboxamide]
O=C(c1cccs1)N(CCCN1CCOCC1)c1nc(-c2ccccn2)cs1 [N-(3-morpholinopropyl)-N-(4-(pyridin-2-yl)thiazol-2-yl)thiophene-2-carboxamide]
O=C(CCN(C(=O)c1cccs1)c1nc(-c2cc3ccccc3o2)cs1)NCC1COCCO1 (stereo not drawn) [N-(3-((1,4-dioxan-2-yl)methylamino)-3-oxopropyl)-N-(4-(benzofuran-2-yl)thiazol-2-yl)thiophene-2-carboxamide]
COc1ccc(-c2csc(N(CCCN3CCOCC3)C(=O)c3ccccn3)n2)cc1OC [N-(4-(3,4-dimethoxyphenyl)thiazol-2-yl)-N-(3-morpholinopropyl)picolinamide]
COc1ccc(-c2csc(N(CCCN3CCOCC3)C(=O)c3cccs3)n2)cn1 [N-(4-(6-methoxypyridin-3-yl)thiazol-2-yl)-N-(3-morpholinopropyl)thiophene-2-carboxamide]
CS(=O)(=O)c1ccc(-c2csc(N(CCCN3CCOCC3)C(=O)c3cccs3)n2)cc1 [N-(4-(4-(methylsulfonyl)phenyl)thiazol-2-yl)-N-(3-morpholinopropyl)thiophene-2-carboxamide]
O=C(CCCN(C(=O)c1cccs1)c1nc(-c2cc3ccccc3o2)cs1)NCCc1ccncc1 [N-(4-(benzofuran-2-yl)thiazol-2-yl)-N-(4-oxo-4-(2-(pyridin-4-yl)ethylamino)butyl)thiophene-2-carboxamide]
Cc1ccc(C(=O)N(CCCN2CCOCC2)c2nc(-c3ccccc3)cs2)cc1 [4-methyl-N-(3-morpholinopropyl)-N-(4-phenylthiazol-2-yl)benzamide]
COc1ccc(-c2csc(N(CCCN3CCOCC3)C(=O)c3cc(Cl)ccn3)n2)cc1 [4-chloro-N-(4-(4-methoxyphenyl)thiazol-2-yl)-N-(3-morpholinopropyl)picolinamide]
CN(C)CCOc1cccc(-c2csc(N(CCCN3CCOCC3)C(=O)c3cccs3)n2)c1 [N-(4-(3-(2-(dimethylamino)ethoxy)phenyl)thiazol-2-yl)-N-(3-morpholinopropyl)thiophene-2-carboxamide]
Cc1c(-c2csc(N(CCCN3CCOCC3)C(=O)c3cccs3)n2)cnn1-c1ccccc1 [N-(4-(5-methyl-1-phenyl-1H-pyrazol-4-yl)thiazol-2-yl)-N-(3-morpholinopropyl)thiophene-2-carboxamide]
O=C1COc2ccc(-c3csc(N(CCCN4CCOCC4)C(=O)c4cccs4)n3)cc2N1 [N-(3-morpholinopropyl)-N-(4-(3-oxo-3,4-dihydro-2H-benzo[b][1,4]oxazin-6-yl)thiazol-2-yl)thiophene-2-carboxamide]
O=C(c1cccs1)N(CCCN1CCOCC1)c1nc(-c2ccc(Cl)cc2Cl)cs1 [N-(4-(2,4-dichlorophenyl)thiazol-2-yl)-N-(3-morpholinopropyl)thiophene-2-carboxamide]
O=C1CN(CCCN(C(=O)c2cccs2)c2nc(-c3cc4ccccc4o3)cs2)CCN1 [N-(4-(benzofuran-2-yl)thiazol-2-yl)-N-(3-(3-oxopiperazin-1-yl)propyl)thiophene-2-carboxamide]
N#CCCN(CC1CCCO1)C(=O)CCCN(C(=O)c1cccs1)c1nc(-c2cc3ccccc3o2)cs1 (stereo not drawn) [N-(4-(benzofuran-2-yl)thiazol-2-yl)-N-(4-((2-cyanoethyl)((tetrahydrofuran-2-yl)methyl)amino)-4-oxobutyl)thiophene-2-carboxamide]
COc1ccc(-c2csc(N(CCCN3CCOCC3)C(=O)c3cccc(F)c3)n2)cc1 [3-fluoro-N-(4-(4-methoxyphenyl)thiazol-2-yl)-N-(3-morpholinopropyl)benzamide]
NC(=O)C1CCN(CCCN(C(=O)c2cccs2)c2nc(-c3cc4ccccc4o3)cs2)CC1 [1-(3-(N-(4-(benzofuran-2-yl)thiazol-2-yl)thiophene-2-carboxamido)propyl)piperidine-4-carboxamide]
O=C(c1cccs1)N(CCC(=O)N1CCCC1CO)c1nc(-c2cc3ccccc3o2)cs1 (stereo not drawn) [N-(4-(benzofuran-2-yl)thiazol-2-yl)-N-(3-(2-(hydroxymethyl)pyrrolidin-1-yl)-3-oxopropyl)thiophene-2-carboxamide]
CCN(CC)CCCN(C(=O)c1ccccc1)c1nc(-c2cc(OC)ccc2OC)cs1 [N-(3-(diethylamino)propyl)-N-(4-(2,5-dimethoxyphenyl)thiazol-2-yl)benzamide]
CNCCN(C)C(=O)CCN(C(=O)c1cccs1)c1nc(-c2cc3ccccc3o2)cs1 [N-(4-(benzofuran-2-yl)thiazol-2-yl)-N-(3-(methyl(2-(methylamino)ethyl)amino)-3-oxopropyl)thiophene-2-carboxamide]
O=C(c1cccs1)N(CCCN1CCCCC1CN1CCCC1)c1nc(-c2cc3ccccc3o2)cs1 (stereo not drawn) [N-(4-(benzofuran-2-yl)thiazol-2-yl)-N-(3-(2-(pyrrolidin-1-ylmethyl)piperidin-1-yl)propyl)thiophene-2-carboxamide]
CC(=O)NC1CCN(C(=O)CCCN(C(=O)c2cccs2)c2nc(-c3cc4ccccc4o3)cs2)C1 (stereo not drawn) [N-(4-(3-acetamidopyrrolidin-1-yl)-4-oxobutyl)-N-(4-(benzofuran-2-yl)thiazol-2-yl)thiophene-2-carboxamide]
O=C(c1cccs1)N(CCCN1CCOCC1)c1nc(-c2cccc(Br)c2)cs1 [N-(4-(3-bromophenyl)thiazol-2-yl)-N-(3-morpholinopropyl)thiophene-2-carboxamide]
COC(=O)C1CCCCN1CCCN(C(=O)c1cccs1)c1nc(-c2cc3ccccc3o2)cs1 (stereo not drawn) [methyl 1-(3-(N-(4-(benzofuran-2-yl)thiazol-2-yl)thiophene-2-carboxamido)propyl)piperidine-2-carboxylate]
O=C(CCN(C(=O)c1cccs1)c1nc(-c2cc3ccccc3o2)cs1)N(CCO)CCO [N-(4-(benzofuran-2-yl)thiazol-2-yl)-N-(3-(bis(2-hydroxyethyl)amino)-3-oxopropyl)thiophene-2-carboxamide]
O=C(O)CCOc1ccc(-c2csc(N(CCCN3CCOCC3)C(=O)c3cccs3)n2)cc1 [3-(4-(2-(N-(3-morpholinopropyl)thiophene-2-carboxamido)thiazol-4-yl)phenoxy)propanoic acid]
O=C(c1cccnc1)N(CCCN1CCOCC1)c1nc(-c2cc3ccccc3o2)cs1 [N-(4-(benzofuran-2-yl)thiazol-2-yl)-N-(3-morpholinopropyl)nicotinamide]
CN(C)C(=O)c1ccc(-c2csc(N(CCCN3CCOCC3)C(=O)c3cccs3)n2)cc1 [N-(4-(4-(dimethylcarbamoyl)phenyl)thiazol-2-yl)-N-(3-morpholinopropyl)thiophene-2-carboxamide]
O=C(c1cccs1)N(CCCN1CCOCC1)c1nc(-c2ccccc2Cl)cs1 [N-(4-(2-chlorophenyl)thiazol-2-yl)-N-(3-morpholinopropyl)thiophene-2-carboxamide]
